pIC50: −log10 of the molar value. No end group written: not given here.
Assays:
Assay in all cases: biochemical
Format in all cases: binding
[1] = target: A*0203 (Homo sapiens, UniProt P04439, A173T/D140Y/D185E/D98H/E277Q/G131W/G231S/I119V/I121R/I166T/I218V/L180W/L300P/L318F/N151K/N90K/P208A/P217A/Q86G/Q94H/R138H/R169H/T345S)
[2] = target: A*6802 (Homo sapiens, UniProt P04439, A269V/D140Y/D185E/E176V/E277Q/E87N/F33Y/G231S/I121R/I166T/I218V/L180W/L300P/L318F/N151K/P208A/P217A/Q86R/R138H/R169H/S129P/T345S/V36M)
[3] = target: A*0202 (Homo sapiens, UniProt P04439, D140Y/D185E/D98H/E176V/E277Q/G131W/G231S/I119L/I121R/I166T/I218V/L180W/L300P/L318F/N151K/N90K/P208A/P217A/Q67R/Q86G/Q94H/R138H/R169H/T345S)
[4] = target: HLA-A*0201 (HLA-A2.1) (Homo sapiens, UniProt P04439, D140Y/D185E/D98H/E176V/E277Q/G131W/G231S/I119V/I121R/I166T/I218V/L300P/L318F/N151K/N90K/P208A/P217A/Q86G/Q94H/R138H/R169H/T345S)
[5] = target: A*0206 (Homo sapiens, UniProt P04439, D140Y/D185E/D98H/E176V/E277Q/F33Y/G131W/G231S/I119V/I121R/I166T/I218V/L300P/L318F/N151K/N90K/P208A/P217A/Q86G/Q94H/R138H/R169H/T345S)

Compound	pIC50 [1]	pIC50 [2]	pIC50 [3]	pIC50 [4]	pIC50 [5]
CC[C@H](C)[C@H](NC(=O)[C@@H](NC(=O)[C@H](CC(C)C)NC(=O)[C@@H](N)CS)[C@@H](C)O)C(=O)N[C@@H](Cc1c[nH]cn1)C(=O)N[C@@H](Cc1ccc(O)cc1)C(=O)N[C@@H](CC(N)=O)C(=O)N[C@@H](Cc1ccc(O)cc1)C(=O)N[C@H](C(=O)O)C(C)C [Peptide 1323.07]	7.19	6.19	6.67	6.57	–
CC[C@H](C)[C@H](NC(=O)[C@@H](NC(=O)[C@@H](NC(=O)[C@@H](NC(=O)[C@@H](NC(=O)[C@@H](NC(=O)[C@@H](N)CCCNC(=N)N)[C@@H](C)O)[C@@H](C)O)C(C)C)[C@@H](C)O)[C@@H](C)O)C(=O)N[C@H](C(=O)N[C@H](C(=O)N[C@@H](Cc1ccc(O)cc1)C(=O)N[C@H](C(=O)O)C(C)C)C(C)C)[C@@H](C)O [Peptide 9013.0304]	–	9.74	8.02	–	7.14
AIFGVNPTI [Peptide 86.0178]	6.49	5.45	7.89	5.74	–
ALDGNDISV [Peptide 1578.33]	–	< 4.70	7.39	7.40	7.32
ELQNTTYLWWV [Peptide 9013.0325]	–	6.80	–	5.52	< 4.70
FLDAFKKFL [Peptide 1578.31]	–	< 4.70	7.60	6.80	6.38
FLGAFKKFL [Peptide 1578.22]	–	< 4.70	8.00	5.23	4.93
FLKGCIISYV [Peptide 1578.43]	8.70	6.10	9.07	6.47	–
GLMIGVLVGVA [Peptide 9013.0345]	–	< 4.70	7.41	5.66	5.48
GLNLSLSCHAA [Peptide 9013.0312]	–	< 4.70	7.33	5.85	< 4.70
GQFRVYPEV [Peptide 9013.0038]	–	< 4.70	–	–	7.37
GVNLSLSCHAV [Peptide 9013.0311]	5.59	6.02	7.20	5.68	–
ILAEAMSKA [Peptide 1516.09]	8.55	5.58	8.46	7.14	–
ILNDTGFYT [Peptide 9013.0036]	–	< 4.70	7.85	6.67	5.42
ILNDTGFYTL [Peptide 9013.0150]	7.23	4.95	8.68	6.82	–
ILQNDTGFYT [Peptide 9013.0147]	–	< 4.70	6.73	6.04	4.95
ILYPNASLL [Peptide 9013.0030]	8.38	4.83	8.74	6.89	–
IQNDTGFYT [Peptide 9013.0034]	–	< 4.70	5.43	< 4.70	6.32
IQNIIQNDV [Peptide 9013.0032]	–	< 4.70	5.71	4.79	–
KILQQLLFI [Peptide 1525.21]	–	< 4.70	–	7.39	7.29
KLITVSAEL [Peptide 9013.0084]	7.57	< 4.70	8.48	7.15	–
KLLSKLLCV [Peptide 1578.03]	7.44	< 4.70	7.17	7.26	–

Compound	pIC50 [1]	pIC50 [2]	pIC50 [3]	pIC50 [4]	pIC50 [5]
KLMSNLLSI [Peptide 1578.21]	–	< 4.70	8.57	7.80	7.47
KLTPLCVIL [Peptide 1516.15]	6.01	< 4.70	7.13	6.45	–
KLTQLCVTL [Peptide 1537.02]	–	< 4.70	8.57	7.62	6.88
KLTSLCVTL [Peptide 1537.03]	7.04	< 4.70	7.54	7.04	–
LLFWNPPTT [Peptide 9013.0007]	8.37	< 4.70	7.82	7.96	–
LLQQYCLYL [Peptide 1578.01]	7.77	–	7.96	6.65	–
LLTFWNPPTTV [Peptide 9013.0259]	7.24	5.12	7.17	6.12	–
LQLSNDNRV [Peptide 9013.0072]	< 4.70	< 4.70	5.77	< 4.70	–
LTIESTPFNVV [Peptide 9013.0267]	–	6.91	6.73	5.96	7.11
MLGVLVGVALI [Peptide 9013.0349]	–	5.06	6.36	5.30	5.33
MTANPPIPV [Peptide 1539.01]	8.60	8.70	8.14	8.64	–
NLAEGKEVLLL [Peptide 9013.0271]	–	< 4.70	7.74	5.12	< 4.70
QQHTQELFV [Peptide 9013.0078]	–	< 4.70	5.28	5.61	–
QQHTQVLFV [Peptide 9013.0102]	7.10	< 4.70	5.85	5.68	–
RILQQPLFI [Peptide 1545.03]	–	< 4.70	5.00	6.85	6.06
RLENAILFTV [Peptide 1593.60]	6.80	4.80	7.62	–	–
RLIIGYVIGT [Peptide 9013.0140]	6.20	4.84	–	5.73	–
RLLLTASLLV [Peptide 9013.0117]	–	5.23	6.91	7.24	–
RLYVCGIQNSV [Peptide 9013.0335]	7.62	< 4.70	8.20	6.77	–
RMLQQLLFT [Peptide 1525.17]	6.31	–	5.73	–	–
RTLQQLMFI [Peptide 1525.23]	–	< 4.70	5.74	–	7.26
SLACSWGMVV [Peptide 1578.02]	8.07	–	7.66	6.09	–

Compound	pIC50 [1]	pIC50 [2]	pIC50 [3]	pIC50 [4]	pIC50 [5]
STQELFIPNV [Peptide 9013.0181]	–	6.07	5.68	5.26	–
TQQATPGPV [Peptide 9013.0027]	–	< 4.70	–	< 4.70	5.23
TTAKLTIESV [Peptide 9013.0125]	–	7.28	5.39	< 4.70	–
TTQDVSLEV [Peptide 1593.54]	–	8.05	5.63	5.87	6.17
TVQDVSLEV [Peptide 1593.55]	7.25	7.82	6.32	–	–
VAWDSVYYM [Peptide 1578.46]	5.88	5.29	6.22	–	–
VAWDSVYYV [Peptide 1593.57]	–	7.32	7.46	8.36	8.48
VLEGKEVLL [Peptide 9013.0019]	–	< 4.70	7.74	5.54	< 4.70
VLFTCEPEA [Peptide 9013.0089]	–	< 4.70	7.15	6.62	5.34
VQWAYDNDV [Peptide 86.0190]	–	5.44	7.05	5.35	6.37
VQWAYDNEL [Peptide 86.0196]	–	< 4.70	6.72	–	5.96
VVWDSIYYI [Peptide 1578.53]	–	7.28	7.41	7.89	7.96
WLNGQSLPV [Peptide 9013.0090]	8.19	–	8.07	–	–
WLNYTPGPGI [Peptide 73.0129]	–	–	–	–	< 4.70
YACFVSNLAV [Peptide 9013.0248]	–	7.02	6.12	5.86	7.15
YIDDYLRNL [Peptide 1578.39]	6.42	< 4.70	7.57	–	–
YLHNRLVVFT [Peptide 86.0075]	–	5.80	6.92	–	4.82
YLLHVIKSDL [Peptide 9013.0152]	–	–	7.66	7.07	7.21
YTNWKFIYL [Peptide 1578.47]	–	6.84	–	–	7.08
YVVWDSIYYI [Peptide 1578.52]	–	–	6.90	7.11	7.31
